The values that follow come from ChEMBL document CHEMBL4665681, “On the Promise of Photopharmacology Using Photoswitches: A Medicinal Chemist's Perspective” (J Med Chem, 2020).

In brackets after ≈: the same amount, converted by molar mass. Where only a bound is given, the exact number is not on record here.

Data set [1] can be described thus: Half life in Dutch Belted rabbit retina at 30 uM, IVT measured after 24 to 336 hrs by LC-MS/MS analysis. Type of data set: ADME, tissue-based, Oryctolagus cuniculus. To be noted: topical or ocular, time 24-336 hrs.
The test system of data set [2] is Escherichia coli. In words: Antibacterial activity against Quinolone-sensitive Escherichia coli CS1562 (tolC6:tn10) using irradiated compound measured every 10 min for 12 hrs by broth dilution method. The data set is classed as functional. To be noted: light or radiation study.
A short description of data set [3]: Half life of compound in water at 21x10^-6 M. Type of data set: physicochemical. The note with it: dose 21 10^-6M.
Data set [4] concerns Escherichia coli. In words: Antibacterial activity against Quinolone-sensitive Escherichia coli CS1562 (tolC6:tn10) measured every 10 min for 12 hrs by broth dilution method. Type of data set: functional. Background: Broth dilution looks for growth in wells or tubes with falling amounts of substance.
For data set [5], the target named is Histone deacetylase 2 (Homo sapiens, UniProt Q92769). In words: Light-dependent inhibition of recombinant full length human HDAC2 expressed in baculovirus infected Sf9 insect cells preincubated for 1 hr in presence of LED light irradiation followed by substrate addition and measured for 30 mins by fluorescence method.
Chain of Histone deacetylase 2 (Q92769 whole entry): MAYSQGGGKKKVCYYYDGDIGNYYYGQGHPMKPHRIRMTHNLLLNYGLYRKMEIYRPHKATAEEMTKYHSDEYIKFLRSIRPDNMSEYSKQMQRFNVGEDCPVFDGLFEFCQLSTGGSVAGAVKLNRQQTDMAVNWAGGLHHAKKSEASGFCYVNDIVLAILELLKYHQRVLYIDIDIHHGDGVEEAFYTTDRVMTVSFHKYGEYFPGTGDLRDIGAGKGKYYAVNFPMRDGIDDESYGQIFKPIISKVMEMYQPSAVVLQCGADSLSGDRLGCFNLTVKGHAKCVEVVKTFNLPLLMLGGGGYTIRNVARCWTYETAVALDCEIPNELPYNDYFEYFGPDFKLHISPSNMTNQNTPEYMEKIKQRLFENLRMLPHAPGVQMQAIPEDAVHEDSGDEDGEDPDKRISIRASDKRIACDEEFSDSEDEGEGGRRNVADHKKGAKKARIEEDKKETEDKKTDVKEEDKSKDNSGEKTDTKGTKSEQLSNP
Data set [6] can be described thus: Thermal relaxation half life in PBS buffer. Type of data set: physicochemical.

Broadly, the half-life is how long it takes for the measured level to halve. A lower half-life goes with fast loss. Regarding `CCN(Cc1ccccc1)c1ccc(/N=N/c2ccc(NC(=O)C[N+](CC)(CC)CC)cc2)cc1` [KIO-301], in data set [1], the half-life at 30 µM is 24 days.

For orientation: MIC means the smallest concentration in the dilution series that meets the test's criterion for growth inhibition. For `CCn1cc(C(=O)O)c(=O)c2ccc(/N=N\c3ccc(OC)c(C)c3)cc21`, the MIC was 16 µg/mL (≈ 43.8 µM) in data set [2] and not below 64 µg/mL in data set [4]. Further, the half-life at 21 µM in data set [3] was 0.0833 days.

In general, IC50 refers to the concentration that gives 50% inhibition. Consider `CN(C)c1ccc(/N=N\c2ccc(C(=O)Nc3cc(-c4cccs4)ccc3O)cc2)cc1`, for which the IC50 in data set [5] is less than 100 nM. In data set [6], this compound had a t1/2 of 56 microsec.
